Measurements from patent US11312939B2, “Constructs for chimeric antigen receptors” (Carisma Therapeutics Inc., priority 2020, dated 2022).

B1: CD40L: Recombinant CD40 ligand (Peprotech), CD40 agonist (protein, UniProt P29965 113-261, looked up)
CD40 ligand, soluble form: MQKGDQNPQIAAHVISEASSKTTSVLQWAEKGYYTMSNNLVTLENGKQLTVKRQGLYYIYAQVTFCSNREASSQAPFIASLCLKSPGRFERILLRAANTHSSAKPCGQQSIHLGGVFELQPGASVFVNVTDPSQVSHGTGFTSFGLLKL

Columns and labels:
[1] = system: Human macrophages transfected with mCherry mRNA; assay: mCherry mRNA expression in transfected macrophages (Incucyte); format: cell-based; conditions: cultured one day with different doses
Procedure: Human macrophages were transfected with mCherry mRNA comprising m6AGCap1 and PsU or N1 mPsU modifications and were then cultured for one day with different doses of IFN-γ. mCherry expression was monitored on an Incucyte® live imaging microscope.
In order to determine whether an RNaseL inhibitor could rescue IFN-γ-induced instability of transfected mRNA, human macrophages were treated with 1 μM sunitinib (an RNaseL inhibitor) two hours prior to the transfection of mCherry mRNA comprising m6AGCap1 and PsU modifications. Transfected cells were then cultured for one day with different dosages of IFN-γ. mCherry expression was monitored on an Incucyte® live imaging microscope.
The effect of another RNaseL inhibitor (RLI or ABCE1) was also tested to further validate the concept. Human macrophages were co-transfected with mRNA encoding mCherry comprising m6AGCap 1 and PsU modifications and with mRNA encoding ABCE1.

[2] = system: Human macrophages electroporated with HER2 CAR mRNA; assay: Cytokine treatment of HER2 CAR mRNA macrophages: viability, CAR expression, M1/M2 markers by flow cytometry; format: cell-based; conditions: days 2 and 7
Procedure: Human macrophages were electroporated with HER2 CAR mRNA comprising m6AGCap1 and PsU modifications. Cells were cultured with cytokines that induce an M1 phenotype such as IFN-alpha, IFN-beta, IFN-gamma, IFN-gamma plus lipopolysaccharide (LPS), TNF-alpha, IL-6 or a STING ligand (STING-L) for up to 48 hours and then cytokines were washed off and fresh media was added. CAR expression and M1 marker expression were measured on days 2 and 7 after transfection. Fluorescent labeled HER2+ breast cancer cells (CRL2351) were co-cultured with HER2 CAR macrophages two days after the macrophages were transfected. Cancer cell growth was monitored via its fluorescence on an Incucyte® live imaging microscope every four hours. The Effector (CAR macrophage) to Target (cancer cell) ratio was 5:1.
Five different mRNA modifications were also tested to determine if interferon treatment differentially affected macrophages transfected with mRNA comprising different modifications. Human macrophages were electroporated with HER2 CAR mRNA comprising different mRNA modifications. CAR expression and M1 markers were detected by Flow Cytometry (Attune) on day four after electroporation. Day 4 CAR macrophage cells were then co-cultured with a Nuc-Light labeled, HER2+ breast cancer cell line (CRL2351) at an Effector (CAR macrophage) to Target (cancer cell) ratio of 5:1. Cancer cell growth was monitored via its fluorescence on an Incucyte® live imaging microscope every four hours.
Human macrophages were electroporated with 300 nM CAR mRNA comprising m6AGCap1 and PsU modifications. Cells were cultured with 20 ng/mL IFNs for 24 hours and then the cells were washed to remove cytokines. CAR expression was detected by Flow Cytometry (Attune) on day 2 after transfection. Cells were then co-cultured with a Nuc-Light labeled, HER2+ breast cancer cell line (CRL2351) at the Effector to Target ratio of 3:1. Cancer cell growth was monitored via its fluorescence on an Incucyte® live imaging microscope. CAR expression and M1 markers in macrophages were detected by Flow Cytometry (Attune) on day 7 after transfection.

[3] = system: HER2 CAR macrophages co-cultured with HER2+ breast cancer cells (CRL2351); assay: Cytokine secretion of interferon treated HER2 CAR macrophages in co-culture (MSD); format: cell-based, human; conditions: E:T 3:1, supernatant at 48 hours
Procedure: Human macrophages were electroporated with 150 nM HER2 CAR mRNA comprising m6AGCap1 and PsU modifications. HER2+ breast cancer cells (CRL2351) were co-cultured with CAR macrophages after the macrophages were transfected with the CAR mRNA at an Effector (CAR macrophage) to Target (cancer cell) ratio of 3:1. Supernatant was collected 48 hours after the cancer cells and macrophages were co-cultured and cytokine levels were measured using a Meso Scale Discovery (MSD) instrument.

[4] = system: Her2-Zeta CAR expressing macrophages; assay: Priming of CAR macrophages with plate-coated agonists, M1 and M2 surface markers; format: cell-based, human; conditions: plate-coated protein, 3 days
Procedure: (§1) To generate Her2-Zeta CAR expressing macrophages, primary human macrophages were suspended in EP buffer (MaxCyte) containing 300 nM mRNA (TriLink) at a concentration of 90×10^6 cells/mL. 100 μL of cell mixture was added to an electroporation cassette (OC100×2; MaxCyte) and electroporated using the Experimental T cell 1 setting. Cells were removed from the cassette, plated in 3 mL of TexMACS media (Miltenyi Biotech) containing 20% FBS (Gibco) on UpCell plates (Thermo Scientific), and incubated overnight at 37 C and 5% CO2.
(§2) Recombinant CD40 ligand (Peprotech), 4-1BB ligand (Enzo Life Sciences), and 4-1BB receptor (Peprotech) were resuspended in molecular grade water to a stock concentration of 100 μg/mL. Stock solution was then used to create working solutions in PBS ranging from 2-0.002 μg/mL. 100 uL of working solution was added to wells in a 96-well plate and left at room temperature for 4 h.
For detection of cell surface proteins, macrophages were plated onto wells coated with agonist molecules in a final volume of 200 uL TexMACS media+10% FBS+10 ng/mL GM-CSF and incubated for 3 days at 37 C and 5% CO2. Cells were incubated in 300 μL Accutase (Sigma) for 30 min and transferred to 96-well round bottom plate for staining. Cells were incubated in FACS buffer containing 20 μg/mL Her2-His for 20 min at RT, followed by incubation in Human TruStain FcX for 10 min at RT. […]

[5] = system: CRL-2351 cells expressing nuclear GFP; assay: Priming of CAR macrophages with plate-coated agonists, tumor cell killing; format: cell-based; conditions: plate-coated protein, 3 h priming
Procedure: as §1, §2
Plates were removed from the incubator and left at room temperature for 30 min. Cells were detached from plate, counted using the NC-200 automated cell counter (Chemomtech), and re-suspended in TexMACS media with 10% FBS. […] Cell lysis was detected using Incucyte® analysis (Essen Bioscience). Tumor cell death was calculated by integrated GFP intensity per well relative to time 0.

| Molecule | mCherry mRNA expression [1] | M1 phenotype based on CD86 expression [2] | M2 markers based on CD163 expression [2] | secretion of IL-6, IL-8 and TNFα from macrophages [3] | M1 phenotype of mRNA CAR macrophages (M1 and M2 markers) [4] | tumor killing ability of macrophages and CAR macrophages [5] |
| --- | --- | --- | --- | --- | --- | --- |
| IFN-γ: interferon cytokine that induces an M1 phenotype | reduced mCherry mRNA expression | induction of an M1 phenotype | reduction of M2 markers | increased secretion of the cytokines IL-6, IL-8 and TNFα |  |  |
| IFN-α |  | induction of an M1 phenotype | reduction of M2 markers | increased secretion of the cytokines IL-6, IL-8 and TNFα |  |  |
| B1 |  |  |  |  | induced an M1 phenotype | significantly improved the tumor killing ability |
